Assay [1] addresses T1, human GIP receptor (hGIP R) (Homo sapiens, UniProt P48546).
T1 construct: expressed in transfected cells
T1 sequence (P48546 22-466): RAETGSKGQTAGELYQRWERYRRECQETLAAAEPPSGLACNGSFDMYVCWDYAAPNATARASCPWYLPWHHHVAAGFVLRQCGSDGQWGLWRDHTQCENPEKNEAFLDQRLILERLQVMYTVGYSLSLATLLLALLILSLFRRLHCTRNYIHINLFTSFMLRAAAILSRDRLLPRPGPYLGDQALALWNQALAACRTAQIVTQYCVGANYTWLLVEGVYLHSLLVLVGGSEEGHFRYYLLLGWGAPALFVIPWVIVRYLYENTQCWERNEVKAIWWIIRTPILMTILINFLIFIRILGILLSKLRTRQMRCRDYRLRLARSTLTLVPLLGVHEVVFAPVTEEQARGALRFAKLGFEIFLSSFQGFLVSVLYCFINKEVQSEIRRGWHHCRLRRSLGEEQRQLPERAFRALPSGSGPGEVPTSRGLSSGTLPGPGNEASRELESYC
As to the kind of experiment: cAMP response of HEK-293 cells stably expressing human GIP receptor (HTRF). Particulars: Table 7; cAMP formation. Type of assay: cell-based. As to the method:
(§1) cAMP content of cells was determined using a kit from Cisbio Corp. (cat. no. 62AM4PEC) based on HTRF (Homogenous Time Resolved Fluorescence). For preparation, cells were split into T175 culture flasks and grown overnight to near confluency in medium (DMEM/10% FBS). Medium was then removed and cells washed with PBS lacking calcium and magnesium, followed by proteinase treatment with accutase (Sigma-Aldrich cat. no. A6964). Detached cells were washed and resuspended in assay buffer (1×HBSS; 20 mM HEPES, 0.1% BSA, 2 mM IBMX) and cellular density determined. They were then diluted to 400000 cells/ml and 25 μl-aliquots dispensed into the wells of 96-well plates. For measurement, 25 μl of test compound in assay buffer was added to the wells, followed by incubation for 30 minutes at room temperature.

Assay [2] has as its target T2, human glucagon receptor (hGLUC R) (Homo sapiens, UniProt P47871).
T2 construct: expressed in transfected cells
Description: cAMP response of HEK-293 cells stably expressing human glucagon receptor (HTRF). Type of assay: cell-based. Particulars: Table 7; cAMP formation. The protocol: as §1

For assay [3], the target named is T3, human GLP-1 receptor (hGLP-1 R) (Homo sapiens, UniProt P43220).
T3 construct: expressed in transfected cells
Description: cAMP response of HEK-293 cells stably expressing human GLP-1 receptor (HTRF). Particulars: Table 7; cAMP formation. The format is cell-based. As to the method:
as §1

Another assay deals with human GLP-1 receptor (human, UniProt P43220 24-463). As to the kind of experiment: cell-based or functional assay.
The target in the next assay is T4, human GIP receptor (human, UniProt P48546 22-466).
T4 sequence (looked up): T1 sequence (P48546 22-466)
Description: cell-based or functional assay.

Another assay has as its target human glucagon receptor (human, UniProt P47871 26-477). Description: cell-based or functional assay.

*1 amine or outer side, *2 acyl side, *3 side chain or, on linkers, in order; H or OH if unused. Where a SMILES comes first, the peptide text is derived from it. Where no end group is shown, it is not given here. Side-chain parts run from the residue outwards. [ ]: non-standard residue; d: D form. The star is where a group is joined. γGlu = O=C(O)[C@H](CCC(=O)[*:2])N[*:1]; Stearoyl = CCCCCCCCCCCCCCCCCC(=O)*; Palmitoyl = CCCCCCCCCCCCCCCC(=O)*; Aib = CC(C)(N)C(=O)O

T2 sequence (P47871 26-477): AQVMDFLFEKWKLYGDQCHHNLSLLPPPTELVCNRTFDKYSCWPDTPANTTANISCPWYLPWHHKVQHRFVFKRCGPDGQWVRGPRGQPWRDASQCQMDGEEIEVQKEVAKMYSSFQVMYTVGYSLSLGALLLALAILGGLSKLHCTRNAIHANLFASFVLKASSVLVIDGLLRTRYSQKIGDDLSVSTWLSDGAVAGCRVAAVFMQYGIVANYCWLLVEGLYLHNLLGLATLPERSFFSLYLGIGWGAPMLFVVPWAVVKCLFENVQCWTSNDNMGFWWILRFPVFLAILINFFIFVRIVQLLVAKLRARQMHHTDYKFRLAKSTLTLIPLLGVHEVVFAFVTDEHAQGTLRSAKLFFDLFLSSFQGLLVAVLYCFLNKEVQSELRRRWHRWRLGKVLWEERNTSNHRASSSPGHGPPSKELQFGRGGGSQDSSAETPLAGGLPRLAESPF
Chain of human glucagon receptor (P47871 26-477): as above
T3 sequence (P43220 24-463): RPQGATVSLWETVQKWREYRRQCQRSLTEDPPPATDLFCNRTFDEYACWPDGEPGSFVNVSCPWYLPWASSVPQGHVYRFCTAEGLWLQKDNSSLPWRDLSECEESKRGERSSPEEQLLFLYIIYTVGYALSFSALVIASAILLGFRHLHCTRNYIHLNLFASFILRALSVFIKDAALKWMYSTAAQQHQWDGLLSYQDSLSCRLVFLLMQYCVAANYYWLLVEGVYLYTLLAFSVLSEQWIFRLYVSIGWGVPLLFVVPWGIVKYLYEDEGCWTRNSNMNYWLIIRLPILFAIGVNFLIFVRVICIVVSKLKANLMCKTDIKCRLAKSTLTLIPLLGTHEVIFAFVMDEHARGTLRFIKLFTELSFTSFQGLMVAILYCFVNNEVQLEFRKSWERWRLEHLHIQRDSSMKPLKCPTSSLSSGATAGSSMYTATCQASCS

As for `CCCCCCCCCCCCCCCCCC(=O)N[C@@H](CCC(=O)NCCCC[C@H](NC(=O)[C@H](CCC(N)=O)NC(=O)[C@@H](NC(=O)[C@H](CO)NC(=O)[C@H](CC(C)C)NC(=O)[C@H](CC(=O)O)NC(=O)[C@H](CO)NC(=O)[C@@H](NC(=O)[C@H](Cc1ccccc1)NC(=O)[C@@H](NC(=O)CNC(=O)[C@H](CCC(=O)O)NC(=O)C(C)(C)NC(=O)[C@@H](N)Cc1ccc(O)cc1)[C@@H](C)O)[C@@H](C)O)[C@@H](C)CC)C(=O)N[C@@H](CCC(=O)O)C(=O)N[C@@H](CCC(=O)O)C(=O)N[C@@H](CCCNC(=N)N)C(=O)N[C@@H](C)C(=O)N[C@H](C(=O)N[C@@H](CCCNC(=N)N)C(=O)N[C@@H](CC(C)C)C(=O)N[C@@H](Cc1ccccc1)C(=O)N[C@H](C(=O)N[C@@H](CCC(=O)O)C(=O)N[C@@H](Cc1c[nH]c2ccccc12)C(=O)N[C@@H](CC(C)C)C(=O)N[C@@H](CCCCN)C(=O)N[C@@H](C)C(=O)NCC(=O)NCC(=O)N1CCC[C@H]1C(=O)N[C@@H](CO)C(=O)N[C@@H](CO)C(=O)NCC(=O)N[C@@H](C)C(=O)N1CCC[C@H]1C(=O)N1CCC[C@H]1C(=O)N1CCC[C@H]1C(=O)N[C@@H](CO)C(N)=O)[C@@H](C)CC)C(C)C)C(=O)O` [SEQ ID NO: 64, Y-Aib-E-G-T-F-T-S-D-L-S-I-Q-K(yE-x70)-EERAVRLFIEWLKAGGPSSGAPPPS-NH2] (H-Y[Aib]EGTFTSDLSIQK([γGlu-Stearoyl])EERAVRLFIEWLKAGGPSSGAPPPS-NH2), the results for the concentration for a half-maximal effect (EC50) in assay [1] and in assay [2] were 0.0096 nM and 75.1 nM, respectively.
In the case of `CCCCCCCCCCCCCCCC(=O)N[C@@H](CCC(=O)NCCCC[C@H](NC(=O)[C@H](CCC(N)=O)NC(=O)[C@@H](NC(=O)[C@H](CO)NC(=O)[C@H](CC(C)C)NC(=O)[C@H](CC(=O)O)NC(=O)[C@H](CO)NC(=O)[C@@H](NC(=O)[C@H](Cc1ccccc1)NC(=O)[C@@H](NC(=O)CNC(=O)[C@H](CCC(N)=O)NC(=O)C(C)(C)NC(=O)[C@@H](N)Cc1ccc(O)cc1)[C@@H](C)O)[C@@H](C)O)[C@@H](C)CC)C(=O)N[C@@H](CC(=O)O)C(=O)N[C@@H](CCCCN)C(=O)N[C@@H](CCCNC(=N)N)C(=O)N[C@@H](C)C(=O)N[C@H](C(=O)N[C@@H](CCC(N)=O)C(=O)N[C@@H](CC(C)C)C(=O)N[C@@H](Cc1ccccc1)C(=O)N[C@H](C(=O)N[C@@H](CCC(=O)O)C(=O)N[C@@H](Cc1c[nH]c2ccccc12)C(=O)N[C@@H](CC(C)C)C(=O)N[C@@H](CCCCN)C(=O)N[C@@H](CC(N)=O)C(=O)NCC(=O)NCC(=O)N1CCC[C@H]1C(=O)N[C@@H](CO)C(=O)N[C@@H](CO)C(=O)NCC(=O)N[C@@H](C)C(=O)N1CCC[C@H]1C(=O)N1CCC[C@H]1C(=O)N1CCC[C@H]1C(=O)N[C@@H](CO)C(N)=O)[C@@H](C)CC)C(C)C)C(=O)O` [SEQ ID NO: 47, Y-Aib-Q-G-T-F-T-S-D-L-S-I-Q-K(yE-x53)-DKRAVQLFIEWLKNGGPSSGAPPPS-NH2] (H-Y[Aib]QGTFTSDLSIQK([γGlu-Palmitoyl])DKRAVQLFIEWLKNGGPSSGAPPPS-NH2), the EC50 in assay [3] worked out at 0.0156 nM; in assay [2] it was 2.39 nM.
With `CCCCCCCCCCCCCCCC(=O)N[C@@H](CCC(=O)NCCCC[C@H](NC(=O)[C@H](CCC(N)=O)NC(=O)[C@@H](NC(=O)[C@H](CO)NC(=O)[C@H](CC(C)C)NC(=O)[C@H](CC(=O)O)NC(=O)[C@H](CO)NC(=O)[C@@H](NC(=O)[C@H](Cc1ccccc1)NC(=O)[C@@H](NC(=O)CNC(=O)[C@H](CCC(=O)O)NC(=O)C(C)(C)NC(=O)[C@@H](N)Cc1ccc(O)cc1)[C@@H](C)O)[C@@H](C)O)[C@@H](C)CC)C(=O)N[C@@H](CC(=O)O)C(=O)N[C@@H](CCCCN)C(=O)N[C@@H](CCCNC(=N)N)C(=O)N[C@@H](CCCCN)C(=O)N[C@@H](C)C(=O)N[C@@H](CCC(N)=O)C(=O)N[C@@H](CC(=O)O)C(=O)N[C@@H](Cc1ccccc1)C(=O)N[C@H](C(=O)N[C@@H](CCC(=O)O)C(=O)N[C@@H](Cc1c[nH]c2ccccc12)C(=O)N[C@@H](CC(C)C)C(=O)N[C@@H](CCCCN)C(=O)N[C@@H](CC(N)=O)C(=O)NCC(=O)NCC(=O)N1CCC[C@H]1C(=O)N[C@@H](CO)C(=O)N[C@@H](CO)C(=O)NCC(=O)N[C@@H](C)C(=O)N1CCC[C@H]1C(=O)N1CCC[C@H]1C(=O)N1CCC[C@H]1C(=O)N[C@@H](CO)C(N)=O)[C@@H](C)CC)C(=O)O` [SEQ ID NO: 54, Y-Aib-E-G-T-F-T-S-D-L-S-I-Q-K(yE-x53)-DKRKAQDFIEWLKNGGPSSGAPPPS-NH2] (H-Y[Aib]EGTFTSDLSIQK([γGlu-Palmitoyl])DKRKAQDFIEWLKNGGPSSGAPPPS-NH2), the EC50 in assay [3] was determined as 0.0668 nM; in assay [2] it was 2.62 nM.

B1: exendin-4 peptide analogue SEQ ID NO: 37 (peptide)
peptide: Y[Aib]EGTFTSDLSIQK([γGlu-Palmitoyl])EERAAHEFIEWLKR[Aib]GPSSGAPPPS-NH2
modifications: N-terminus assumed
SMILES: CCCCCCCCCCCCCCCC(=O)N[C@@H](CCC(=O)NCCCC[C@H](NC(=O)[C@H](CCC(N)=O)NC(=O)[C@@H](NC(=O)[C@H](CO)NC(=O)[C@H](CC(C)C)NC(=O)[C@H](CC(=O)O)NC(=O)[C@H](CO)NC(=O)[C@@H](NC(=O)[C@H](Cc1ccccc1)NC(=O)[C@@H](NC(=O)CNC(=O)[C@H](CCC(=O)O)NC(=O)C(C)(C)NC(=O)[C@@H](N)Cc1ccc(O)cc1)[C@@H](C)O)[C@@H](C)O)[C@@H](C)CC)C(=O)N[C@@H](CCC(=O)O)C(=O)N[C@@H](CCC(=O)O)C(=O)N[C@@H](CCCNC(=N)N)C(=O)N[C@@H](C)C(=O)N[C@@H](C)C(=O)N[C@@H](Cc1c[nH]cn1)C(=O)N[C@@H](CCC(=O)O)C(=O)N[C@@H](Cc1ccccc1)C(=O)N[C@H](C(=O)N[C@@H](CCC(=O)O)C(=O)N[C@@H](Cc1c[nH]c2ccccc12)C(=O)N[C@@H](CC(C)C)C(=O)N[C@@H](CCCCN)C(=O)N[C@@H](CCCNC(=N)N)C(=O)NC(C)(C)C(=O)NCC(=O)N1CCC[C@H]1C(=O)N[C@@H](CO)C(=O)N[C@@H](CO)C(=O)NCC(=O)N[C@@H](C)C(=O)N1CCC[C@H]1C(=O)N1CCC[C@H]1C(=O)N1CCC[C@H]1C(=O)N[C@@H](CO)C(N)=O)[C@@H](C)CC)C(=O)O
As for B1, the “EC50 hGLP-1 R” value in the assay with human GLP-1 receptor worked out at 0.0066 nM. The “EC50 hGIP R” value with human GIP receptor was determined as 0.0121 nM. In addition, the “EC50 hGLUC R” value with human glucagon receptor came out at 12.1 nM.

B2: exendin-4 peptide analogue SEQ ID NO: 36 (peptide)
peptide: Y[Aib]QGTFTSDLSIQK([γGlu-Palmitoyl])EKRAAHEFIEWLKNTGPSSGAPPPS-NH2
modifications: N-terminus assumed
SMILES: CCCCCCCCCCCCCCCC(=O)N[C@@H](CCC(=O)NCCCC[C@H](NC(=O)[C@H](CCC(N)=O)NC(=O)[C@@H](NC(=O)[C@H](CO)NC(=O)[C@H](CC(C)C)NC(=O)[C@H](CC(=O)O)NC(=O)[C@H](CO)NC(=O)[C@@H](NC(=O)[C@H](Cc1ccccc1)NC(=O)[C@@H](NC(=O)CNC(=O)[C@H](CCC(N)=O)NC(=O)C(C)(C)NC(=O)[C@@H](N)Cc1ccc(O)cc1)[C@@H](C)O)[C@@H](C)O)[C@@H](C)CC)C(=O)N[C@@H](CCC(=O)O)C(=O)N[C@@H](CCCCN)C(=O)N[C@@H](CCCNC(=N)N)C(=O)N[C@@H](C)C(=O)N[C@@H](C)C(=O)N[C@@H](Cc1c[nH]cn1)C(=O)N[C@@H](CCC(=O)O)C(=O)N[C@@H](Cc1ccccc1)C(=O)N[C@H](C(=O)N[C@@H](CCC(=O)O)C(=O)N[C@@H](Cc1c[nH]c2ccccc12)C(=O)N[C@@H](CC(C)C)C(=O)N[C@@H](CCCCN)C(=O)N[C@@H](CC(N)=O)C(=O)N[C@H](C(=O)NCC(=O)N1CCC[C@H]1C(=O)N[C@@H](CO)C(=O)N[C@@H](CO)C(=O)NCC(=O)N[C@@H](C)C(=O)N1CCC[C@H]1C(=O)N1CCC[C@H]1C(=O)N1CCC[C@H]1C(=O)N[C@@H](CO)C(N)=O)[C@@H](C)O)[C@@H](C)CC)C(=O)O
For B2, the “EC50 hGLP-1 R” value with human GLP-1 receptor amounted to 0.0052 nM. The “EC50 hGIP R” value with human GIP receptor stood at 0.0301 nM. Besides, in the assay with human glucagon receptor, the “EC50 hGLUC R” value turned out to be 0.0395 nM.

These data come from patent US20140213513A1 (Sanofi, priority 2012, published 2014).
